Results from US20060252731A1, “Methods of treating recurrent aphthous stomatitis” (priority 2005, published 2006).

How the values were obtained:
[1] = Plasma concentration of COL-3 in humans; format: in vivo; details: dose of about 10 to about 20 mg/day
Experimental: A preferred COL is 6-demethyl-6-deoxy-4-de(dimethylamino)tetracycline (COL-3). COL-3 is administered in doses of up to about 200 mg/day, preferably about 150 mg/day, more preferably about 100 mg/day, or in amounts that result in plasma concentrations of up to about 50 μg/ml, about 40 μg/ml or about 30 μg/ml. For example, a dose of about 10 to about 20 mg/day of COL-3 produces plasma concentrations in humans of about 1.0 μg/ml.

aphthous ulcers = details: continuous systemic treatment, antimicrobial amounts; cited from earlier work
[2] = test system: minor aphthous ulceration; experiment: Clinical study of SDD versus placebo for relief of symptoms of aphthous ulceration; format: in vivo, human; details: for number of ulcers / pain associated with ulcers: 20 mg twice a day, vis-à-vis placebo group
Experimental: The objective of this study was to evaluate the clinical effects of a 20 mg dose of doxycycline administered twice daily (i.e., a sub-antibacterial dose of doxycycline, “SDD”) vis-à-vis a placebo administered twice daily for the relief of symptoms of aphthous ulceration.
The study was a single center, placebo-controlled, double-bind, parallel group study. The study participants were fifty patients of an oral medicine clinic. The participants were screened to identify any known predisposing factors prior to the study.
The participants were administered SDD or placebo for three months. The participants were permitted to use any additional ulcer management therapies as needed. The participants kept daily diaries to record pain caused by ulcers using the Visual Analogue Scale (VAS), and to record the number of new ulcers each day. The VAS quantified pain over a continuum represented by a horizontal line 100 mm in length.
At the baseline, the oral soft tissues and ulcer count were evaluated in each of the participants. The ulcer history of each participant was taken. At the third month, oral soft tissues and ulcer count were reevaluated.
Of the 50 participants, 25 were administered SDD; and 25 were administered placebo. Of the 50 participants, 32 were females, 18 were males; and 49 were Caucasian, and one was Asian. Thirty-three participants completed the study. Of these participants, 16 were in the SDD group and 17 were in the placebo group.

## NC(=O)C1=C(O)C[C@@H]2C[C@@H]3Cc4cccc(O)c4C(=O)C3=C(O)[C@]2(O)C1=O [COL-3, 6-demethyl-6-deoxy-4-de(dimethylamino)tetracycline]
[1]
  plasma concentrations in humans: about 1.0 μg/ml

## CN(C)[C@@H]1C(O)=C(C(N)=O)C(=O)[C@@]2(O)C(O)=C3C(=O)c4c(O)cccc4[C@@](C)(O)[C@H]3C[C@@H]12 [tetracycline, Tetracycline]
Aphthous ulcers
  remission phases of aphthous ulcers: long remission phases

## doxycycline hyclate [SDD]
[2]; 20 mg doxycycline twice daily for three months
  treatment of RAS: effectively treated RAS
[2]; 20 mg doxycycline twice daily for three months, placebo group 1.24, P >0.05
  Mean number of ulcers present at month 3: 0.69
[2]; 20 mg doxycycline twice daily for three months, placebo group 13.4, P >0.05
  Mean number of days using additional treatments: 11.5
[2]; 20 mg doxycycline twice daily for three months, placebo group 35, P >0.05(0.07)
  Mean total number of new ulcers in 3 months: 17
[2]
  number of ulcers: fewer ulcers
  pain associated with ulcers: less pain
[2]; listed as doxycycline hyclate
  number of ulcers: significant reduction
  pain associated with ulcers: significant reduction
[2]; pain by Visual Analogue Scale, daily diaries over three months, placebo group 1435, P >0.05
  Mean cumulative VAS (mm): 901 mm
